Data as given in article PMC6731281, “Production of zosteric acid and other sulfated phenolic biochemicals in microbial cell factories” (Nature Communications, 2019).

Columns and labels:
Type in all cases: cell-based
[1] = target: T1, SULT1A1Rno (Rattus norvegicus, UniProt P17988); experiment: HPLC of supernatant of E. coli expressing the enzyme; product zosteric acid matched synthetic standard; conditions: intracellular PAPS as donor; 100 µM substrate in screen; M9, 37 °C, 24 h
T1 construct: gene Sult1a1; codon-optimized synthetic gene in pETDuet-1, expressed in E. coli KRX or BL21(DE3) (also in S. cerevisiae); whole growing cells
T1 sequence (P17988 whole entry): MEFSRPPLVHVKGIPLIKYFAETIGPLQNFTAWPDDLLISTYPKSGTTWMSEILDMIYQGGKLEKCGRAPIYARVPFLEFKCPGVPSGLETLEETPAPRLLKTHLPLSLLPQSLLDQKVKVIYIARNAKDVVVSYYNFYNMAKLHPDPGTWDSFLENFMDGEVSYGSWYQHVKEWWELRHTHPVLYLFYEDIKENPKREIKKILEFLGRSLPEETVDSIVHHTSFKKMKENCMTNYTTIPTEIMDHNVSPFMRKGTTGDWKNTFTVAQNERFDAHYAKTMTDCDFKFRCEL

[2] = target: T2, TALFjo (Flavobacterium johnsoniae, UniProt A5FKY3); experiment: HPLC of p-coumaric and zosteric acid in culture of E. coli co-expressing TAL and SULT1A1; conditions: with or without 2 mM tyrosine; M9, 0.2% glucose, 24 h
T2 construct: gene Fjoh_1109; co-expressed with rat SULT1A1 in E. coli BL21(DE3) (also in S. cerevisiae); whole growing cells
T2 sequence (A5FKY3 1-506): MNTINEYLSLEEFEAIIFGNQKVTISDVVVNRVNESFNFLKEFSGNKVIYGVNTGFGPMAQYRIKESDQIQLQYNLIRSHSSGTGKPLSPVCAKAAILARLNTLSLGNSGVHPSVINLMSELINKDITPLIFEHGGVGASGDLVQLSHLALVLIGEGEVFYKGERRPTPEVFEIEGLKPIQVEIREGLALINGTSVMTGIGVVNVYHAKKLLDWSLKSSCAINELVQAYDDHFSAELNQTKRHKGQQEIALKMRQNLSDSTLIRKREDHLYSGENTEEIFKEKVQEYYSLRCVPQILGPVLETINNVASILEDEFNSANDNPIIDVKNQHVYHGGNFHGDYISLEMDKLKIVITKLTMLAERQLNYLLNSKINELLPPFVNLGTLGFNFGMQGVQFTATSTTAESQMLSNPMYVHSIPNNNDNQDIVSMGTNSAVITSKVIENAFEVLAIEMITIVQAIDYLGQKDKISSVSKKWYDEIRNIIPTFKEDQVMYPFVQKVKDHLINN

[3] = target: T3, TALRsp (Cereibacter sphaeroides, UniProt Q3IWB0); experiment: as above; conditions: with or without 2 mM tyrosine; M9, 0.2% glucose, 24 h
T3 construct: gene hutH; co-expressed with rat SULT1A1 in E. coli BL21(DE3); whole growing cells
T3 sequence (Q3IWB0 1-523): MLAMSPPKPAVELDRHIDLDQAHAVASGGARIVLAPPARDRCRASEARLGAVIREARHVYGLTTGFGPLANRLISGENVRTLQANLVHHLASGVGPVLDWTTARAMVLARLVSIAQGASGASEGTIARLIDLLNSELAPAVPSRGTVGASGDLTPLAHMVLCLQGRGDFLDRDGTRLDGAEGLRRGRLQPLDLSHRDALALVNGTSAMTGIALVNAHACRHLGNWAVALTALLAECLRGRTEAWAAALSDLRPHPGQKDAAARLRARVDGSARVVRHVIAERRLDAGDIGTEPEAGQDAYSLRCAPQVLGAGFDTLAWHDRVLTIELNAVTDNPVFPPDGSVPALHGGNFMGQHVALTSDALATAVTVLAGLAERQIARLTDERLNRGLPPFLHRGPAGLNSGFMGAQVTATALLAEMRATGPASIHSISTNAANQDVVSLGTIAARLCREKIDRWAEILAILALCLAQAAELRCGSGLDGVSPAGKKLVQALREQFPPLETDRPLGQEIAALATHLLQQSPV

[4] = target: T4, TALRca (Rhodobacter capsulatus, UniProt D5AR26); experiment: as above; conditions: with or without 2 mM tyrosine; M9, 0.2% glucose, 24 h
T4 construct: gene hutH; co-expressed with rat SULT1A1 in E. coli BL21(DE3); whole growing cells
T4 sequence (D5AR26 1-531): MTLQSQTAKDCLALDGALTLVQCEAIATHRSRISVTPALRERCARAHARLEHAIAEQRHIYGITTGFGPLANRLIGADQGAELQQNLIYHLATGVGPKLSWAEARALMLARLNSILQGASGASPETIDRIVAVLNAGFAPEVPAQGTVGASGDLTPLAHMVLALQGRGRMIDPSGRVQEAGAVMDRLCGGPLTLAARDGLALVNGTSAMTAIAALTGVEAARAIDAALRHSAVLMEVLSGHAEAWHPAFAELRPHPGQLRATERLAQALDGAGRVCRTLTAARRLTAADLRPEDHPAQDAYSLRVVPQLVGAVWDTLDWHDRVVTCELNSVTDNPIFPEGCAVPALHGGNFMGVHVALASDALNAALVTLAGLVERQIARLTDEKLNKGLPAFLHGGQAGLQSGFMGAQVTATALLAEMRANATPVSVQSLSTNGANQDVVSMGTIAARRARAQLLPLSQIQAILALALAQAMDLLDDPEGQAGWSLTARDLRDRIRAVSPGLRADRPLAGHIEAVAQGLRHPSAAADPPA

SMILES | HPLC of supernatant of E. coli expressing the enzyme; product zosteric acid matc [1] | HPLC of p-coumaric and zosteric acid in culture of E. coli co-expressing TAL and [2] | HPLC of p-coumaric and zosteric acid in culture of E. coli co-expressing TAL and [3] | HPLC of p-coumaric and zosteric acid in culture of E. coli co-expressing TAL and [4]
O=C(O)/C=C/c1ccc(O)cc1 [p-coumaric acid] | SULT1A1Rno showed the greatest production of zosteric acid from p-coumaric acid |  |  | 
N[C@@H](Cc1ccc(O)cc1)C(=O)O [tyrosine] |  | expression of a TAL-encoding gene was required for the production of pHCA | expression of a TAL-encoding gene was required for the production of pHCA | expression of a TAL-encoding gene was required for the production of pHCA
